Experiments:
[1] = tested on: Hela luciferase reporter-c-Jun (HLR-c-Jun) cell lines; test: C-Jun reporter assay; type: cell-based; conditions: Homo sapiens, MEKK-1 transfected HLR-c-Jun cells
Excerpt: The phosphorylation of the transcriptional factor, c-jun, by JNK in the MAP kinase signal transduction pathway can be followed via a trans-reporting system such as the commercially available PathDetect® (32).
A trans-reporting system allows one to follow, via Luciferase activity, the activation status of a fusion trans-activator protein. The trans-activator protein consists of the activation domain of the transcriptional factor of interest (c-jun) fused with a yeast transcriptional activator, GAL4 DNA binding domain (dbd). The GAL4 dbd has the advantage that no known mammalian transcriptional factors can bind to it and therefore the background noise of the assay is very low.
In the present case, Hela luciferase reporter-c-Jun (HLR-c-Jun) cell lines which constitutively express GAL4-cJun were used.
The MEKK-1 gene was inserted. MEKK-1 is a MAPKKK which triggers the activation of JNK. Expression of wild type MEKK-1 is sufficient for JNK activation (33).
Once, JNK is activated it can induce the phosphorylation of the c-jun domain of the fusion trans-activator protein (GAL4dbd-cJun) which forms a dimer. The dimer is then is able to bind to a GAL4 upstream activating sequence (GAL4 UAS) of the reporter which activates Luciferase expression.
Luciferase expression is detected by luminescence using a simple assay such as Dual-Luciferase® Reporter Assay System (34) in which Renilla is used as a “control reporter”.
Inhibition of JNK is observed as a decrease in Luciferase expression and detected by a decrease in luminescence.
HLR-c-Jun cells are cultured in DMEM High Glc supplemented with 10% FCS (Sigma), 2 mM Glutamine (Gibco), P/S, Hygromycin b 100 μg/mL and G418 250 μg/mL.
The cell suspensions are diluted with medium to give about 3.5×10^6 cells/mL and […] of cell suspension are put onto 2 10 cm culture dishes containing 9 mL of culture medium.
Transfections • Control: 0.2 μg pTK Renilla, 5.8 μg pBluescript KS, 500 μl OPTIMEM (GOBCO), 18 μl Fugene 6. • Induced: 0.1 μg pMEKK1, 0.2 μg pTK Renilla, 5.7 μg pBluescript KS, 500 μl OPTIEM (GIBCO), 18 μl Fugene 6 30′ RT.
The transfection mixture is added to the plated cells. The plates are incubated over night at 37° C. in a humidified atmosphere of 5% CO2 in air.
A 96 wells plate (100 μl of culture medium per well) is prepared. Negative control (vehicle): 2 μl of DMSO is added to the 100 μl (in triplicate). […]
The medium is removed from the plate and the cells are washed two times with 100 μl PBS. […] The luminometer reading is recorded.
−50 μl of Luciferase Assay Reagent II are injected and readings are recorded at 5 and 10 minutes.
50 μl of Stop & Glo® Reagent are injected and readings are recorded at 5 and 10 minutes.
The relative luminescence is then measured: RLU Luciferase/RLU Renilla.

[2] = tested on: IL-2 release by (PMA+Ionomycin)-stimulated Jurkat cells; test: IL-2 release assay (IL-2 ELISA); type: cell-based; conditions: Homo sapiens; PMA + Ionomycine stimulated Jurkat cells
Experimental: The Ability of the Compounds According to Formula I to Modulate the Inflammatory Response by Inhibiting the Release of IL-2 was Assessed Using the Following Protocol
JNK pathway activation triggers the production of inflammatory cytokines such as IL-2. JNK can be activated by external stimuli such as PMA and Ionomycine and IL-2 production can be measured via an IL-2 ELISA test. Comparative measurements with and without the compounds of the invention according to the following protocol measure the ability of the compounds to prevent to stress-mediated IL-2 release.
Jurkat cells, a human T cell leukemia cell line (American Type Culture Collection # TIB 152) were cultured in RPMI 1640 medium (Gibco, BRL) supplemented with 10% of […] fetal calf serum (FCS), Glutamine and Penstrep. The cell suspension in the medium is diluted to give 2.10^6 cells/mL. The cells were plated (2.10^5 cells/well) on a 96-well plate containing different concentrations of a compound according to formula I (final concentration of compounds, 10, 3, 1, 0.3, 0.1 μM). This mixture is incubated 30 minutes at 37° C. in a humidified CO2 atmosphere. Cells were then treated with 10 μl PMA (Phorbolmyristate-13 Acetate-12)+Ionomycine (0.1 μM and 1 μM final concentration) in all wells except negative control. In wells without compounds, 10 μl of RPMI 2% DMSO (=0.1% final) is added. Cells are incubated 24 hours at 37° C. and then the supernatant harvested (freeze at −20° C. if not used the same day) prior to performing IL-2 ELISA test on the supernatant.
IL-2 release into the medium by (PMA+Iononomycin)-stimulated Jurkat cells, in presence or absence of test compounds may be assayed by ELISA. Following the procedure described below.
Monoclonal anti-human IL-2 antibody (MAB602) (capture), biotinylated anti-human IL-2 antibody (BAF202) (detection) and recombinant human IL-2 (202-IL-010) (standard) from From R&D Systems are used. […]
• 1. […] Optical density is measured using a microtiter plate reader set to 450 nm with correction at 570 nm.

[3] = molecular target: GST-JNK3 (Homo sapiens, UniProt P53779); test: JNK3 in vitro assay (33P incorporation into c-jun, SPA); type: biochemical
Chain of GST-JNK3 (P53779 whole entry): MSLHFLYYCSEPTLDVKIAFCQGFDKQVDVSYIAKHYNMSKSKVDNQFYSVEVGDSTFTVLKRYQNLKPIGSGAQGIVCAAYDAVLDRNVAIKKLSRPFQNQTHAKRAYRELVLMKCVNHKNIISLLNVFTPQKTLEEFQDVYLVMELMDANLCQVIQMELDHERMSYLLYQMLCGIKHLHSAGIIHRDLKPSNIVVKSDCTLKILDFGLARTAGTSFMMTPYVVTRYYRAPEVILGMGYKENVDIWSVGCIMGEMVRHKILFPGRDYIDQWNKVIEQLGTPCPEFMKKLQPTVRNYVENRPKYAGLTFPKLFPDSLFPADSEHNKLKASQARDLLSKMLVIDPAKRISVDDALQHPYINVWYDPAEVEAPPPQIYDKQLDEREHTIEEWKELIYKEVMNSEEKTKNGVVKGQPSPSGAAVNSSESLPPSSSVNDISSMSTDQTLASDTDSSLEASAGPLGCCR
Experimental: (§1) The phosphorylation of c-jun by JNK2 or JNK3 may be followed by monitoring the incorporation of ^33P into c-jun following the protocol below. The inhibitory activity of the compounds according to formula I, in respect of c-jun phosphorylation through JNK, is determined by calculating the phosphorylation activity of a JNK in the presence or absence of the test compounds according to formula I.
(§2) JNK3 and/or -2 assays are performed in 96 well NM plates: incubation of 0.5 μg of recombinant, pre-activated GST-JNK3 or GST-JNK2 with 1 μg of recombinant, biotinylated GST-c-Jun and 2 μM ^33γ-ATP (2 nCi/μl), in the presence or absence of compounds according to formula I and in a reaction volume of 50 μl containing 50 mM Tris-HCl, pH 8.0; 10 mM MgCl2; 1 mM Dithiothreitol, and 100 μM NaVO4. The incubation is performed for 120 min. at R.T and stopped upon addition of 200 μl of a solution containing 250 μg of Streptavidine-coated SPA beads (Amersham, Inc.)*, 5 mM EDTA, 0.1% Triton X-100 and 50 μM ATP, in phosphate saline buffer. After incubation for 60 minutes at RT, beads are sedimented by centrifugation at 1500×g for 5 minutes, resuspended in 200 μl of PBS containing 5 mM EDTA, 0.1% Triton X-100 and 50 μM ATP and the radioactivity measured in a scintillation β counter, following sedimentation of the beads as described above. By replacing biotinylated GST-c Jun with biotinylated GST-1ATF2 or biotinylated myelin basic protein, this assay may also be used to measure inhibition of pre-activated p38 and ERK MAP Kinases, respectively.

[4] = molecular target: GST-JNK2 (Homo sapiens, UniProt P45984); test: JNK2 in vitro assay (33P incorporation into c-jun, SPA); type: biochemical
Chain of GST-JNK2 (P45984 whole entry): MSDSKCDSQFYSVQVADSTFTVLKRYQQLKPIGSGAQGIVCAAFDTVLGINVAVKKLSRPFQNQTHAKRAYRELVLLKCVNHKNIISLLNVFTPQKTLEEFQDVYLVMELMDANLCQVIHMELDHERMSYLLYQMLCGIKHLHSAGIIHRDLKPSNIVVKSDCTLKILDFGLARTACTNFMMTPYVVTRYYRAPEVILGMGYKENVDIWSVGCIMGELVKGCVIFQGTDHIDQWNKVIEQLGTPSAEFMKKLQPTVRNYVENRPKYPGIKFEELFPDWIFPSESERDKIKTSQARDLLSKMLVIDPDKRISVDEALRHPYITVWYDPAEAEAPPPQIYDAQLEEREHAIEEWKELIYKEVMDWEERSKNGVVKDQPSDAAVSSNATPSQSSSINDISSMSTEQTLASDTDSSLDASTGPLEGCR
Experimental: as §1, §2

[5] = molecular target: JNK1 (Homo sapiens, UniProt P45983); test: JNK1 inhibition; type: biochemical; conditions: read-out: inhibition (IC50) with regard to JNK1
Chain of JNK1 (P45983 whole entry, species assumed): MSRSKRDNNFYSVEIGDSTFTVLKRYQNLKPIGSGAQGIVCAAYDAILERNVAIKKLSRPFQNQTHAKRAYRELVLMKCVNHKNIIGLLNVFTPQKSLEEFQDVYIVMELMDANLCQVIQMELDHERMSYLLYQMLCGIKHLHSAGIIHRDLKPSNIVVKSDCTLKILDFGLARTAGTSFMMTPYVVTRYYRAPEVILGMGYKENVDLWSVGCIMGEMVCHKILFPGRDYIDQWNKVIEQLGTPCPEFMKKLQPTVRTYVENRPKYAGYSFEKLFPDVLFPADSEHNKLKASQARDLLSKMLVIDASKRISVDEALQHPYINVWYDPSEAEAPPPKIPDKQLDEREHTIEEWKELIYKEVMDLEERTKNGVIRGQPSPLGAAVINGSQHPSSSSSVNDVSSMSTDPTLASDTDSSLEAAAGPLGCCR

[6] = Solubility in water; type: physicochemical; conditions: pH 7.4, aqueous buffer, pH of 7.4 at room temperature
Experimental: The compounds have been assessed in respect of their solubility in water, at a pH of 7.4 at room temperature. In general the solubility of compounds of formula (I) is in a range of at least 50 μg/mL solvent, more preferably of at least 100 μg/mL solvent. For instance compounds (63), (163), (198) display a solubility in water of at least 200 μg/mL solvent.

| SMILES | IC50 [3] [nM] | IC50 [4] [nM] | also measured |
| --- | --- | --- | --- |
| COc1cccc(C(=O)NCc2ccc(S(=O)(=O)N3CCC(NCc4c(C)c(C)c(C)c(C)c4C)CC3)s2)c1 [Example 10, 3-methoxy-N-{[5-({4-[(2,3,4,5,6-pentamethylbenzyl)amino]piperidin-1-yl}sulfonyl)thien-2-yl]methyl}benzamide] | – | – | IC50 [1]: < 700 nM |
| CCCOc1ccc(CNC2CCN(S(=O)(=O)c3ccc(CNC(=O)c4cccc(OC)c4)s3)CC2)cc1 [Example 11, 3-methoxy-N-{[5-({4-[(4-propoxybenzyl)amino]piperidin-1-yl}sulfonyl)thien-2-yl]methyl}benzamide] | – | – | IC50 [1]: < 700 nM |
| COc1cccc(C(=O)NCc2ccc(S(=O)(=O)N3CCC(NCc4ccc(S(=O)(=O)C(F)(F)F)cc4)CC3)s2)c1 [Example 64, 3-methoxy-N-[(5-{[4-({4-[(trifluoromethyl)sulfonyl]benzyl}-amino)piperidin-1-yl]sulfonyl}thien-2-yl)methyl]benzamide] | – | – | IC50 [2]: < 800 nM |
| O=C(NCc1ccc(S(=O)(=O)N2CCC(NCCC3CCCCC3)CC2)s1)c1ccc(Cl)cc1 [Example 70, 4-chloro-N-{[5-({4-[(2-cyclohexylethyl)amino]piperidin-1-yl}sulfonyl)thien-2-yl]methyl}benzamide] | < 600 | < 600 | – |
| CCCCCCCCCCNC1CCN(S(=O)(=O)c2ccc(CNC(=O)c3cccc(OC)c3)s2)CC1 [Example 86, 3-methoxy-N-[(5-{[4-(decylamino)piperidin-1-yl]sulfonyl}thien-2-yl)methyl]benzamide] | – | – | IC50 [5]: 100 to 700 nM |
| O=C(NCc1ccc(S(=O)(=O)N2CCC(NCc3ccc(S(=O)(=O)C(F)(F)F)cc3)CC2)s1)c1ccc(Cl)cc1 [Example 117, 4-chloro-N-[(5-{[4-({4-[(trifluoromethyl)sulfonyl]benzyl}amino)-1-piperidinyl]sulfonyl}-2-thienyl)methyl]benzamide] | – | – | IC50 [1]: < 700 nM |
| COc1cccc(C(=O)NCc2ccc(S(=O)(=O)N3CCCC(NCCC4CCCCC4)CC3)s2)c1 (stereo not drawn) [Example 132, N-{[5-({4-[(2-cyclohexylethyl)amino]azepan-1-yl}sulfonyl)thien-2-yl]methyl}-3-methoxy-benzamide] | < 600 | – | – |
| CCCCCCN(CC1CCCCC1)C1CCN(S(=O)(=O)c2ccc(CNC(=O)c3ccc(Cl)cc3)s2)CC1 [Example 155, 4-chloro-N-{[5-({4-[(cyclohexylmethyl)(hexyl)-amino]piperidin-1-yl}sulfonyl)thien-2-yl]methyl}-benzamide] | < 600 | < 600 | – |
| CCCCCCN(C)C1CCN(S(=O)(=O)c2ccc(CNC(=O)c3ccc(Cl)cc3)s2)CC1 [Example 163, 4-chloro-N-{[5-({4-[hexyl(methyl)amino]piperidin-1-yl}sulfonyl)thien-2-yl]methyl}benzamide] | – | – | solubility [6]: ≥ 200 µg/mL |
| COc1cccc(C(=O)NCc2ccc(S(=O)(=O)N3CCC(NCCCN4CCOCC4)C3)s2)c1 (stereo not drawn) [Example 176, 3-methoxy-N-{[5-({3-[(3-morpholin-4-ylpropyl)amino]pyrrolidin-1-yl}sulfonyl)thien-2-yl]methyl}benzamide] | < 600 | < 600 | – |
| CCCCCNCC1CCN(S(=O)(=O)c2ccc(CNC(=O)c3cccc(OC)c3)s2)CC1 [Example 195, 3-methoxy-N-{[5-({4-[(pentylamino)methyl]piperidin-1-yl}sulfonyl)-thien-2-yl]methyl}benzamide] | < 600 | < 600 | – |

Source: US7544700B2, “Pharmaceutically active sulfonamide derivatives bearing both lipophilic and ionisable moieties as inhibitors of protein JunKinases” (Laboratoires Serono SA, priority 2000, dated 2009)
